According to PubChem BioAssay (NCI):
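Tested at 5 concentrations; 48 h exposure; 96-well plates; endpoints linearly interpolated, else capped at highest concentration. GI50: concentration for 50% inhibition of growth. TGI: total growth inhibition.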

How the values were obtained:
Experiment in all cases: NCI tumour cell line growth inhibition, 48 h; in the data active = GI50 below about 0.43 µM; inactive = the rest
[1] = tested on: LOX IMVI melanoma
[2] = tested on: NCI-H226 lung
[3] = tested on: HOP-92 NSCLC
[4] = tested on: UACC-257 melanoma
[5] = tested on: MDA-MB-468 breast
[6] = tested on: CCRF-CEM leukemia
[7] = tested on: OVCAR-5 ovarian
[8] = tested on: CAKI-1 renal
[9] = tested on: ACHN renal
[10] = tested on: U251 CNS
[11] = tested on: SF-295 CNS
[12] = tested on: KM12 colon
[13] = tested on: NCI-H522 lung
[14] = tested on: A498 renal
[15] = tested on: SNB-19 CNS
[16] = tested on: UACC-62 melanoma
[17] = tested on: NCI/ADR-RES ovarian
[18] = tested on: SF-539 CNS
[19] = tested on: SW-620 colon
[20] = tested on: DU-145 prostate
[21] = tested on: HT29 colon
[22] = tested on: MCF7 breast
[23] = tested on: SNB-75 CNS
[24] = tested on: PC-3 prostate
[25] = tested on: OVCAR-3 ovarian
[26] = tested on: COLO 205 colon
[27] = tested on: OVCAR-4 ovarian
[28] = tested on: HCT-116 colon
[29] = tested on: A549 NSCLC
[30] = tested on: SF-268 CNS
[31] = tested on: MDA-MB-435
[32] = tested on: MALME-3M melanoma
[33] = tested on: EKVX NSCLC
[34] = tested on: 786-0 renal
[35] = tested on: T-47D breast
[36] = tested on: BT-549 breast
[37] = tested on: HL-60(TB) leukemia
[38] = tested on: NCI-H460 lung
[39] = tested on: HOP-62 NSCLC
[40] = tested on: SN12C renal
[41] = tested on: UO-31 renal
[42] = tested on: SK-MEL-2 melanoma
[43] = tested on: MDA-MB-231 breast
[44] = tested on: SK-MEL-5 melanoma
[45] = tested on: HS 578T breast
[46] = tested on: SK-OV-3 ovarian
[47] = tested on: HCC-2998 colon
[48] = tested on: K-562 leukemia
[49] = tested on: SR leukemia
[50] = tested on: NCI-H23 lung
[51] = tested on: M14 melanoma
[52] = tested on: IGROV1 ovarian
[53] = tested on: HCT-15 colon
[54] = tested on: SK-MEL-28 melanoma
[55] = tested on: MOLT-4 leukemia
[56] = tested on: TK-10 renal
[57] = tested on: RPMI-8226 leukemia
[58] = tested on: RXF 393 renal
[59] = tested on: OVCAR-8 ovarian

COc1cccc(/C=C/c2nc3ccccc3c(=O)n2CC(=O)Nc2ccccc2)c1
14.5 µM: TGI [14]
28.5 µM: TGI [18]
15.2 µM: TGI [2]
56.6 µM: TGI [51]
20.7 µM: TGI [43]
18.6 µM: TGI [35]
49.3 µM: TGI [50]
56 µM: TGI [28]
18.1 µM: TGI [23]
> 100 µM: TGI [1] | TGI [4] | TGI [5] | TGI [6] | TGI [7] | TGI [12] | TGI [13] | TGI [15] | TGI [16] | TGI [19] | TGI [20] | TGI [21] | TGI [22] | TGI [24] | TGI [25] | TGI [26] | TGI [27] | TGI [29] | TGI [30] | TGI [31] | TGI [33] | TGI [36] | TGI [37] | TGI [38] | TGI [40] | TGI [42] | TGI [44] | TGI [45] | TGI [47] | TGI [48] | TGI [49] | TGI [52] | TGI [53] | TGI [54] | TGI [55] | TGI [57] | TGI [59]
30.1 µM: TGI [8]
inactive: GI50 [1] 5.94 µM | GI50 [2] 3.22 µM | GI50 [3] 11 µM | GI50 [4] > 100 µM | GI50 [5] 9.17 µM | GI50 [6] > 100 µM | GI50 [7] 19.3 µM | GI50 [8] 4.31 µM | GI50 [9] 3.47 µM | GI50 [10] 4.87 µM | GI50 [11] 5.23 µM | GI50 [12] > 100 µM | GI50 [13] 31.6 µM | GI50 [14] 3.2 µM | GI50 [15] 21.7 µM | GI50 [16] 88.5 µM | GI50 [17] 7.72 µM | GI50 [18] 7.51 µM | GI50 [19] > 100 µM | GI50 [20] > 100 µM | GI50 [21] > 100 µM | GI50 [22] 27 µM | GI50 [23] 3.15 µM | GI50 [24] > 100 µM | GI50 [25] 17.6 µM | GI50 [26] > 100 µM | GI50 [27] 6.87 µM | GI50 [28] 5.48 µM | GI50 [29] 3.81 µM | GI50 [30] 36.8 µM | GI50 [31] > 100 µM | GI50 [32] 12.1 µM | GI50 [33] > 100 µM | GI50 [34] 3.08 µM | GI50 [35] 2.76 µM | GI50 [36] > 100 µM | GI50 [37] > 100 µM | GI50 [38] 12.6 µM | GI50 [39] 3.89 µM | GI50 [40] 6.58 µM | GI50 [41] 2.89 µM | GI50 [42] > 100 µM | GI50 [43] 5.97 µM | GI50 [44] 59.3 µM | GI50 [45] 5.91 µM | GI50 [46] 5.87 µM | GI50 [47] > 100 µM | GI50 [48] > 100 µM | GI50 [49] > 100 µM | GI50 [50] 8.91 µM | GI50 [51] 12.5 µM | GI50 [52] 39.1 µM | GI50 [53] 39.9 µM | GI50 [54] 61.4 µM | GI50 [55] > 100 µM | GI50 [56] 9.51 µM | GI50 [57] > 100 µM | GI50 [58] 4.23 µM | GI50 [59] 18.8 µM
12.6 µM: TGI [34]
51.3 µM: TGI [3]
28.6 µM: TGI [11]
64.9 µM: TGI [17]
19 µM: TGI [10]
65.7 µM: TGI [32]
40.9 µM: TGI [46]
12.5 µM: TGI [9]
50.9 µM: TGI [58]
14.4 µM: TGI [39]
30 µM: TGI [56]
14.1 µM: TGI [41]
